Laboratory results: patent publication US8444972B2, “Antitumor antibodies, proteins, and uses thereof” (University of Massachusetts, priority 1999, dated 2013)

Test system: E710.2.3
Test: Homotypic aggregation assay

In the case of Paraformaldehyde, the “HOMOTYPIC ADHESION induced by DMF10.62.3 in presence of chemical” value is reported as “inhibited”.
